Test results taken from patent publication US12678414B2, “Compositions for treatment of fungal nail infections” (Blueberry Therapeutics Limited, priority 2016, dated 2026).
Entries after “also recorded” stand apart in the source; their conditions may differ. Structures can show the parent of a compound that is named as a salt. Where two headings read alike, the source gives them in different places.

Columns and labels:
Microsporum canis = details: 49 strains tested; cited from earlier work
[1] = tested on: Trichophyton mentagrophytes; details: cited from earlier work
T. mentagrophytes = experiment: Trychophyton mentagrophytes anti-fungal paper disc lawn assay; format: cell-based
Protocol: A single colony of T. mentagrophytes was picked from a stock plate and grown for 48 hours in 5 mls of YEPD (yeast extract, peptone, dextrose) medium at 30° C. A sterile swab was dipped into the resulting culture and then used to spread a lawn of T. mentagrophytes onto a YEPD agar plate supplemented with chloramphenicol (50 ug/ml). […] A 10 mm sterile paper disc was soaked in test solution, the excess liquid removed and the disc placed onto the T. mentagrophytes lawn. Plates were inverted and incubated at 30° C. for 5 days. The first experiment performed was to establish the approximate MIC (minimum inhibitor concentration) for terbinafine against T. mentagrophytes in a paper disc assay. […] After 5 days of incubation, zones of clearance were observed around the discs with concentrations of terbinafine having anti-fungal activity against this species (as shown in FIG. 10). […] The reported figures were certainly derived from a liquid MIC assay, which is known to be more sensitive, and so this paper disc assay represented a substantially more stringent test of drug efficacy. This assay was also used to address the question of whether terbinafine passing through the nail in BB0305 treated samples still retained its antifungal efficacy.

Epidermophyton floccosum = details: 42 strains tested; cited from earlier work
[2] = tested on: Trichophyton interdigitale; details: 11 strains tested; cited from earlier work
Trichophyton rubrum = details: 72 strains tested; cited from earlier work
[3] = Nanoparticle analysis on Nanosight LM10; format: physicochemical
Protocol: Nanoparticle formation was routinely confirmed on a Nanosight LM10 instrument (Malvern Instruments). Additional nanoparticle analyses were carried out using a Zetasizer (Malvern Instruments). […] Initial analysis used a Nanosight LM10 nanosizer (Malvern Instruments) to detect nanoparticles in solution. […] The LM10 uses direct visualisation of the particles through a microscope where particles are tracked by a video camera and their sizes calculated using the Einstein-Stokes equation, which relates particle velocity in a solution to their diameter. This video capture also allows for a qualitative assessment of different formulations during their analysis. However, this instrument has a lower cut-off range of approximately 20 nm diameter for analysis.

onychomycosis [4] = details: oral, following 3-6 months of dosing; cited from earlier work
[5] = format: in vitro ADME; details: human, 7 days
Protocol: Nail clippings were soaked in water overnight at 30° C. and dried briefly. A 3 mm diameter punch was used to take disc biopsies of the nail clippings. Each nail disc was added to a Franz cell and an upper chamber of the cell attached. 40 μl of the following formulations was added to the upper chambers: 0.3 mg/ml PHMB+0.1 mg/ml terbinafine; or 10 mg/ml terbinafine. Lower collection chambers of the Franz cells were filled with water (approximately 600 μl) and the hole in the base of the sample chamber also filled with ddH2O to prevent bubbles forming beneath the nail. The upper sample chamber was carefully placed into the collection chamber ensuring not to introduce any air bubbles. Excess liquid from the collection chamber was expelled at this point leaving a final volume of liquid in the lower chamber of 500 μl. […]
The nail discs from the Franz cell were also analysed for the presence of terbinafine as follows: the remaining test sample was removed from the upper sample chamber and discarded and the sample chamber washed 5 times with 100 μl ddH2O, with each wash being discarded, in order to remove any residual test solution remaining in the sample chamber. […]
The cells were then incubated at 32° C. for 7 days. […] After 7 days, samples from the underside of the nail (ethanol washes) were collected and analysed by LC-MS/MS. […] Levels of terbinafine were quantified against drug standards. […]

Trichophyton species = details: 27 strains tested; cited from earlier work
onychomycosis [6] = details: topical terbinafine; hydrochloride; cited from earlier work
Trichophyton terestre = details: 1 strain tested; cited from earlier work
Microsporum species = details: 25 strains tested; cited from earlier work
Trichophyton verrucosum = details: 17 strains tested; cited from earlier work
[7] = oral dosing, cited from earlier work

paper disc MIC relative to previously reported MIC (T. mentagrophytes; 0.6 μg/ml versus 6 ng/ml): > 100 × | MIC (T. mentagrophytes; Trichophyton mentagrophytes, 120 h, paper disc assay, 5 days incubation, approximate, read-out: MIC (minimum inhibitor concentration)): 600 ng/mL | number of particles/ml of solution ([3]; 0.1 mg/ml terbinafine in 30% (v/v) ethanol): < 5e+07 mL⁻¹ | particle size range (diameter) ([3]; 0.1 mg/ml terbinafine, 30% ethanol): 50-800 nm | particle number ([3]; 30% ethanol, room temperature at least 24 hours, 0.1 mg/ml terbinafine): 0.5×10^8 particles/ml | median concentration of drug in dissolved nails [5]: approximately 0.5 mg/g | terbinafine passing through the nail (ethanol washes of underside) ([5]; 0.1 mg/ml): < 0.1 ng/mL
Compound: CN(C/C=C/C#CC(C)(C)C)Cc1cccc2ccccc12 [terbinafine, terbinafine hydrochloride]
MIC range (Microsporum canis): 6 to 80 ng/mL | MIC range ([1]; 32 strains tested): 1 to 6 ng/mL | previously reported MIC ([1]; liquid MIC assay, with reference to Table 1): 6 ng/mL | antifungal activity (zone of clearance) of sample that passed through nail (T. mentagrophytes; aqueous phase of Franz cell collection chamber after 7 days treatment of healthy human nail, 30° C., 5 days): no effect | MIC range (Epidermophyton floccosum): 1 to 47 ng/mL | MIC range [2]: 2 to 28 ng/mL | MIC range (Trichophyton rubrum): 1 to 38 ng/mL | cure (onychomycosis [4]): > 80% | MIC range (Trichophyton species): ≤60 ng/mL | efficacy in the treatment of onychomycosis (onychomycosis [6]): failed to show efficacy; also recorded: failed to demonstrate any significant efficacy | MIC range (Trichophyton terestre): 2 ng/mL | MIC range (Microsporum species): 2 to 70 ng/mL | MIC range (Trichophyton verrucosum): 1 to 6 ng/mL | terbinafine concentration in nails ([7]; after 3 weeks): about 0.25 μg/g | terbinafine concentration in nails ([7]; after 18 months): 0.55 µg/g | terbinafine concentration in nails ([7]; after 7 days treatment): 0.1 µg/g
